From patent US10308631B2, “Selective anti-cancer compounds” (NATIONAL UNIVERSITY OF SINGAPORE, priority 2015, dated 2019)

Columns and labels:
Assay in all cases: MTT growth inhibition (GI50)
Type in all cases: cell-based
SNU-16 = conditions: Homo sapiens, SNU-16, gastric cancer, 72 h
Procedure: (§1) Having shown that Compound 1 and its derivatives are effective against HeLa cervical cancer cells and human fibroblast BJ cell lines, Compound 1 was then tested against a panel of thirty different human cancer cells lines derived from gastric, colon, liver, breast, lung and cervical tumours and five different human normal cell lines, which were normal fibroblast cell lines (BJ normal, IMR90, WI38) and retinal pigmented epithelium cell lines (ARPE-19, hTert-immortalized RPE-1).
(§2) The cell lines detailed in Table 2, below, were cultured in the media shown and treated with Compound 1 at a range of different concentrations (from 0.1 μM to 10 μM) for 72 h in triplicate and a mean concentration value for Compound 1 to achieve 50% growth inhibition (GI50) in each cell line was determined by use of the MTT assay.
(§3) The MTT assay was performed by adding thiazolyl blue tetrazolium bromide (MTT reagent, Invitrogen) at a concentration of 0.5 mg/mL to each cell culture and the resulting mixture incubated for 4 h at 37° C. The medium was then removed, and the blue dye remaining in each well was dissolved in DMSO by mixing with a microplate mixer. The absorbance of each well at 540 nm and 660 nm was measured using a microplate reader (Benchmark plus, BIO-RAD). The optical density (OD) values were calculated by subtracting the absorbance at 660 nm from the absorbance at 540 nm. Mean OD values from control cells containing only DMSO treated wells were set as 100%. The resulting GI50 values (in μM) are set out in Table 2 below.

WI38 = conditions: Homo sapiens, WI-38, WI38, normal cell line, 72 h
Procedure: as §1, §2, §3

AZ521 = conditions: Homo sapiens, AZ-521, AZ521, gastric cancer, 72 h
Procedure: as §1, §2, §3

MDA-MB-231 = conditions: Homo sapiens, MDA-MB-231, breast cancer, 72 h
Procedure: as §1, §2, §3

IST1 = conditions: Homo sapiens, IST1, gastric cancer, 72 h
Procedure: as §1, §2, §3

A549 = conditions: Homo sapiens, A549, cancer (others), 72 h
Procedure: as §1, §2, §3

ARPE-19 = conditions: Homo sapiens, ARPE-19, normal cell line, 72 h
Procedure: as §1, §2, §3

DLD1 = conditions: Homo sapiens, DLD-1, DLD1, colon cancer, 72 h
Procedure: as §1, §2, §3

NCC59 = conditions: Homo sapiens, NCC59, gastric cancer, 72 h
Procedure: as §1, §2, §3

U2OS = conditions: Homo sapiens, cancer (others), 72 h
Procedure: as §1, §2, §3

SNU216 = conditions: Homo sapiens, SNU-216, SNU216, gastric cancer, 72 h
Procedure: as §1, §2, §3

HCT15 = conditions: Homo sapiens, HCT-15, HCT15, colon cancer, 72 h
Procedure: as §1, §2, §3

HT29 = conditions: Homo sapiens, HT-29, HT29, colon cancer, 72 h
Procedure: as §1, §2, §3

IM95 = conditions: Homo sapiens, IM95, gastric cancer, 72 h
Procedure: as §1, §2, §3

MKN45 = conditions: Homo sapiens, MKN-45, MKN45, gastric cancer, 72 h
Procedure: as §1, §2, §3

Hep3 = conditions: Homo sapiens, Hep3, liver cancer, 72 h
Procedure: as §1, §2, §3

SCH = conditions: Homo sapiens, gastric cancer, 72 h
Procedure: as §1, §2, §3

SGCC-GC38 = conditions: Homo sapiens, SGCC-GC38, gastric cancer, 72 h
Procedure: as §1, §2, §3

AGS = conditions: Homo sapiens, gastric cancer, 72 h
Procedure: as §1, §2, §3

BJ Normal = conditions: Homo sapiens, normal cell line, 72 h
Procedure: as §1, §2, §3

NUGC3 = conditions: Homo sapiens, NUGC-3, NUGC3, gastric cancer, 72 h
Procedure: as §1, §2, §3

SNU1 = conditions: Homo sapiens, SNU1, gastric cancer, 72 h
Procedure: as §1, §2, §3

IMR90 = conditions: Homo sapiens, IMR-90, IMR90, normal cell line, 72 h
Procedure: as §1, §2, §3

SNU1750 = conditions: Homo sapiens, SNU1750, gastric cancer, 72 h
Procedure: as §1, §2, §3

HeLa = conditions: Homo sapiens, cancer (others), 72 h
Procedure: as §1, §2, §3

SNU620 = conditions: Homo sapiens, SNU620, gastric cancer, 72 h
Procedure: as §1, §2, §3

NCC24 = conditions: Homo sapiens, NCC24, gastric cancer, 72 h
Procedure: as §1, §2, §3

Huh7 = conditions: Homo sapiens, Huh-7, Huh7, liver cancer, 72 h
Procedure: as §1, §2, §3

SNU449 = conditions: Homo sapiens, SNU-449, SNU449, liver cancer, 72 h
Procedure: as §1, §2, §3

HCT116 = conditions: Homo sapiens, HCT-116, HCT116, colon cancer, 72 h
Procedure: as §1, §2, §3

MCF7 = conditions: Homo sapiens, MCF7, breast cancer, 72 h
Procedure: as §1, §2, §3

NCC19 = conditions: Homo sapiens, NCC19, gastric cancer, 72 h
Procedure: as §1, §2, §3

RPE-1/h-Tert = conditions: Homo sapiens, normal cell line, 72 h
Procedure: as §1, §2, §3

NUGC4 = conditions: Homo sapiens, NUGC-4, NUGC4, gastric cancer, 72 h
Procedure: as §1, §2, §3

Work on `N#C/C(=C\c1cccc2cnccc12)c1c[nH]c2ccccc12` [Compound 1, (Z)-2-(1H-indol-3-yl)-3-(isoquinolin-5-yl)acrylonitrile] yielded a GI50 (SNU-16) of 1000 nM, a GI50 (WI38) of 3400 nM and a GI50 (AZ521) of 2400 nM. It also gave a GI50 (MDA-MB-231) of 1100 nM, a GI50 (IST1) of 2200 nM and a GI50 (A549) of 2000 nM. The GI50 (ARPE-19) was > 10000 nM, the GI50 (DLD1) was 1200 nM and the GI50 (NCC59) was 900 nM. It also gave a GI50 (U2OS) of 1500 nM, a GI50 (SNU216) of 1900 nM and a GI50 (HCT15) of 500 nM. The GI50 (HT29) was 900 nM, the GI50 (IM95) was 1000 nM and the GI50 (MKN45) was 1000 nM. For the same compound, the GI50 (Hep3) was 3700 nM, the GI50 (SCH) was 1700 nM and the GI50 (SGCC-GC38) was 1900 nM. For the same compound, the GI50 (AGS) was 1100 nM, the GI50 (BJ Normal) was 8100 nM and the GI50 (NUGC3) was 1000 nM. For the same compound, the GI50 (SNU1) was 900 nM, the GI50 (IMR90) was 5800 nM and the GI50 (SNU1750) was 700 nM. It also gave a GI50 (HeLa) of 1400 nM, a GI50 (SNU620) of 1000 nM and a GI50 (NCC24) of 1200 nM. For the same compound, the GI50 (Huh7) was 1200 nM, the GI50 (SNU449) was 2300 nM and the GI50 (HCT116) was 1800 nM. It also gave a GI50 (MCF7) of 1200 nM, a GI50 (NCC19) of 4600 nM and a GI50 (RPE-1/h-Tert) of 5200 nM. For the same compound, the GI50 (NUGC4) was > 10000 nM.
